In one test the test system is MDA-MB-361.1. As to the kind of experiment: In vitro cell proliferation assay (CellTiter-Glo), MDA-MB-361.1. It is filed as cell-based. The following applies: Cell line: MDA-MB-361.1; Tissue type: breast; Mutation Status: PI3K; read-out: EC50 (μmole). The procedure:
(§1) Efficacy of Formula I compounds was measured by a cell proliferation assay employing the following protocol (Promega Corp. Technical Bulletin TB288; Mendoza et al (2002) Cancer Res. 62:5485-5488):
(§2) 1. An aliquot of 100 μl of cell culture containing about 10^4 cells (PC3, Detroit562, or MDAMB361.1) in medium was deposited in each well of a 384-well, opaque-walled plate.
(§3) 2. Control wells were prepared containing medium and without cells.
(§4) 3. The compound was added to the experimental wells and incubated for 3-5 days.
(§5) 4. The plates were equilibrated to room temperature for approximately 30 minutes.
(§6) 5. A volume of CellTiter-Glo® Reagent equal to the volume of cell culture medium present in each well was added.
(§7) 6. The contents were mixed for 2 minutes on an orbital shaker to induce cell lysis.
(§8) 7. The plate was incubated at room temperature for 10 minutes to stabilize the luminescence signal.
(§9) 8. Luminescence was recorded and reported in graphs as RLU=relative luminescence units.
(§10) Alternatively, cells were seeded at optimal density in a 96 well plate and incubated for 4 days in the presence of test compound. Alamar Blue™ was subsequently added to the assay medium, and cells were incubated for 6 hr before reading at 544 nm excitation, 590 nm emission. EC50 values were calculated using a sigmoidal dose response curve fit. The term EC50 refers to the half maximal effective concentration and is the concentration at which a drug induces a response halfway between the baseline and maximum after some specified exposure time. It is commonly used as a measure of drug potency.
(§11) The anti-proliferative effects of Formula I exemplary compounds were measured by the CellTiter-Glo® Assay against various tumor cell lines, including the following: […]

The target in another test is T1, p110 alpha PI3K (Homo sapiens, UniProt P42336).
T1 construct: purchased Upstate Cell Signaling Solutions, Charlottesville, Va
T1 sequence (P42336 whole entry): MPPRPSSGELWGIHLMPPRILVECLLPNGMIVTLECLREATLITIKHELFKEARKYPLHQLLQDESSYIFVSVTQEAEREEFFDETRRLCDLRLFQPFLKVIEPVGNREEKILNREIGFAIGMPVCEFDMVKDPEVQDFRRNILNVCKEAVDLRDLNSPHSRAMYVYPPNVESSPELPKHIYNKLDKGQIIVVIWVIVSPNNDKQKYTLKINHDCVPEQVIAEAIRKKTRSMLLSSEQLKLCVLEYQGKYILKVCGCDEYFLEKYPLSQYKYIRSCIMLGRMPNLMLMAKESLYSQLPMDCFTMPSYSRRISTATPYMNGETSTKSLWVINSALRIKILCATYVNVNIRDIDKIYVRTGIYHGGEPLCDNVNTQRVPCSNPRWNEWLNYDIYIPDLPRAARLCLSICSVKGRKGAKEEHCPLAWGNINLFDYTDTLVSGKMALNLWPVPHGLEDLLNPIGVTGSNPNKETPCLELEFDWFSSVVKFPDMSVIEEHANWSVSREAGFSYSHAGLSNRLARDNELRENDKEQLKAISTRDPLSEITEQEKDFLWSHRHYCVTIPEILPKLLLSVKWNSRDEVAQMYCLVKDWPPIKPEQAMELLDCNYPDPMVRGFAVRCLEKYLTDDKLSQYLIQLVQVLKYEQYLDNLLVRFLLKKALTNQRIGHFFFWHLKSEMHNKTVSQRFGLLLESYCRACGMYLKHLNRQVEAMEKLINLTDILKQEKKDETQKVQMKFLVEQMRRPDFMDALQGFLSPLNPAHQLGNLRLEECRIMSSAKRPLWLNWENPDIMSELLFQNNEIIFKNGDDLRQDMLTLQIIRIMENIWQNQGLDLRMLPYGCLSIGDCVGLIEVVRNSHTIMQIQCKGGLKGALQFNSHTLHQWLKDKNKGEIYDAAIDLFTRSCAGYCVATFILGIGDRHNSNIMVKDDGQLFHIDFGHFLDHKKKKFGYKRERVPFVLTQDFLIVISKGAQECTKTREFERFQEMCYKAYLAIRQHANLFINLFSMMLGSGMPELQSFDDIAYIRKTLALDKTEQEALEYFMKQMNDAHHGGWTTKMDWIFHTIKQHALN
T1 sequence (P27986 whole entry partner): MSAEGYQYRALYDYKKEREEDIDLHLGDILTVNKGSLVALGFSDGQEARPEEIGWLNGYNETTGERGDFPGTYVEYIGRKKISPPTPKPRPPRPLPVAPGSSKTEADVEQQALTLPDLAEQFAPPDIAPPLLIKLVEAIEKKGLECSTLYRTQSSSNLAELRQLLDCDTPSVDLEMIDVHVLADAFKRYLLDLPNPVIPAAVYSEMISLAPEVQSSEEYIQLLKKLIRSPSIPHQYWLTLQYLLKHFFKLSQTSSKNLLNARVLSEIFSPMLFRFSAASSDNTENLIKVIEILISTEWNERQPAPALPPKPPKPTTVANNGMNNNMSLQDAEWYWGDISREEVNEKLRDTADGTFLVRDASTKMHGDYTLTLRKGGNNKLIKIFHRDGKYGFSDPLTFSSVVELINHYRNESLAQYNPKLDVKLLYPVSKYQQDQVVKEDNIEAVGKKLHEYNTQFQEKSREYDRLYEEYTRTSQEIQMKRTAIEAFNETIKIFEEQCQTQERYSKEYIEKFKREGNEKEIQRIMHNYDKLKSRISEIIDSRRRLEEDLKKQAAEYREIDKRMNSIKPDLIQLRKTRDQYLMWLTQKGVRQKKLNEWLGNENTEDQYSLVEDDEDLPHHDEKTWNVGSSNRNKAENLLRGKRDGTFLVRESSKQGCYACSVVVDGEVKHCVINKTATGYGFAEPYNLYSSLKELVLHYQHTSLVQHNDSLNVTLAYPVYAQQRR
As to the kind of experiment: p110α (alpha) PI3K binding assay (fluorescence polarization; alternatively radiometric). The following applies: read-out: IC50, Ki (μmole) PI3K, p110 alpha binding assay. The procedure: Binding Assays: Initial polarization experiments were performed on an Analyst HT® 96-384 (Molecular Devices Corp, Sunnyvale, Calif.). […] After an incubation time of 30 minutes at room temperature, the reactions were stopped by the addition of GRP-1 and PIP3-TAMRA probe (Echelon-Inc., Salt Lake City, Utah) 100 nM and 5 nM final concentrations respectively. Read with standard cut-off filters for the rhodamine fluorophore (λex=530 nm; λem=590 nm) in 384-well black low volume Proxiplates® (PerkinElmer, Wellesley, Mass.) Fluorescence polarization values were plotted as a function of the protein concentration, and the EC50 values were obtained by fitting the data to a 4-parameter equation using KaleidaGraph® software (Synergy software, Reading, Pa.). This experiment also establishes the appropriate protein concentration to use in subsequent competition experiments with inhibitors.
After an incubation time of 30 minutes at room temperature, the reactions were stopped by the addition of GRP-1 and PIP3-TAMRA probe (Echelon-Inc., Salt Lake City, Utah) 100 nM and 5 nM final concentrations respectively. Read with standard cut-off filters for the rhodamine fluorophore (λex=530 nm; λem=590 nm) in 384-well black low volume PROXIPLATES® (PerkinElmer, Wellesley, Mass.) Fluorescence polarization values were plotted as a function of the antagonist concentration, and the IC50 values were obtained by fitting the data to a 4-parameter equation in Assay Explorer® software (MDL, San Ramon, Calif.).
The Formula I compound was serially diluted in 100% DMSO. The kinase reaction was incubated for 1 hr at room temperature, and the reaction was terminated by the addition of PBS. IC50 values were subsequently determined using sigmoidal dose-response curve fit (variable slope).
On the technique in general: Fluorescence polarisation rises when a labelled molecule tumbles more slowly, as on binding a larger partner.

Another test has as its system PC3. Nature of the test: In vitro cell proliferation assay (CellTiter-Glo), PC3. It is filed as cell-based. The following applies: Homo sapiens, PC-3; Cell line: PC3; Tissue type: prostate; Mutation Status: PTEN; read-out: EC50 (μmole). As for the experimental part: as §1, §2, §3, §4, §5, §6, §7, §8, §9, §10, §11

On to `CC1(C)OCCn2c1nc1c(N3CCOCC3)nc(-c3ccc(N)cn3)nc12` [Compound 138, 6-(6,6-dimethyl-4-morpholino-8,9-dihydro-6H-[1,4]oxazino[3,4-e]purin-2-yl)pyridine-3-amine], for which the EC50 with MDA-MB-361.1 and in the test with PC3 was above 10 µM in each case. Moreover, the IC50 at p110 alpha PI3K was above 695 nM.

On to `CC(C)Cn1cc(-c2nc(N3CCOCC3)c3nc4n(c3n2)CCOC4(C)C)cn1` [Compound 148, 2-(1-isobutyl-1H-pyrazol-4-yl)-6,6-dimethyl-4-morpholino-8,9-dihydro-6H-[1,4]oxazino[3,4-e]purine], for which the EC50 in the test on MDA-MB-361.1 and with PC3 was above 10 µM in each case. In addition, the IC50 at p110 alpha PI3K was above 695 nM.

Turning to `CN(C)c1cnc(-c2nc(N3CCOCC3)c3nc4n(c3n2)CCOC4(C)C)cn1` [Compound 163, 5-(6,6-dimethyl-4-morpholino-8,9-dihydro-6H-[1,4]oxazino[3,4-e]purin-2-yl)-N,N-dimethylpyrazin-2-amine], the half-maximal effective concentration (EC50) in the test with MDA-MB-361.1 and in the test on PC3 was above 10 µM each time. Also, at p110 alpha PI3K, the IC50 is above 695 nM.

Regarding `CC1(C)OCCn2c1cc1c(N3CCOCC3)nc(-c3cnc(N)nc3)nc12` [Compound 177, 5-(8,8-Dimethyl-1-morpholin-4-yl-5,6-dihydro-8H-7-oxa-2,4,4b-triaza-fluoren-3-yl)-pyrimidin-2-ylamine], the values for the EC50 with MDA-MB-361.1 and in the test with PC3 were 0.094 µM and 0.185 µM, respectively.

As usually defined, the EC50 is the concentration that produces a half-maximal response. One may read the IC50 as the point on the concentration scale where inhibition reaches its midpoint.

Source of the values: patent publication US8883799B2, “Tricyclic PI3K inhibitor compounds and methods of use” (Genentech, Inc., priority 2010, dated 2014).
